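Five compound concentrations were applied to cells in 96-well plates for 48 hours; endpoints were derived by simple linear interpolation of the resulting dose-response curve. Abbreviation: GI50, concentration required for 50% inhibition of growth.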 Activity calls are given as the source filed them. Cut-off read from the data, not from the text of the source: active = GI50 up to about 1.1 µM and inactive = higher.
Assays:
Experiment in all cases: DTP human tumour cell line panel, 48 h
[1] = test system: RPMI-8226
[2] = test system: DMS-273
[3] = test system: HCC 2998
[4] = test system: UO-31
[5] = test system: OVCAR-3
[6] = test system: HOP-62
[7] = test system: SNB-19
[8] = test system: SF-539
[9] = test system: SK-OV-3
[10] = test system: M14
[11] = test system: SK-MEL-28
[12] = test system: SF-268
[13] = test system: ACHN
[14] = test system: OVCAR-4
[15] = test system: CAKI-1
[16] = test system: MDA-N
[17] = test system: MCF7
[18] = test system: NCI/ADR-RES
[19] = test system: SR
[20] = test system: PC-3

## COc1ccccc1C(N)c1ccccc1 (stereo not drawn)
[1]
  GI50: > 100 µM (inactive)
[2]
  GI50: > 100 µM (inactive)
[3]
  GI50: > 100 µM (inactive)
[4]
  GI50: > 100 µM (inactive)
[5]
  GI50: > 100 µM (inactive)
[6]
  GI50: > 100 µM (inactive)
[7]
  GI50: > 100 µM (inactive)
[8]
  GI50: > 100 µM (inactive)
[9]
  GI50: > 100 µM (inactive)
[10]
  GI50: > 100 µM (inactive)
[11]
  GI50: > 100 µM (inactive)
[12]
  GI50: > 100 µM (inactive)
[13]
  GI50: > 100 µM (inactive)
[14]
  GI50: > 100 µM (inactive)

## C=CCNC(=O)N(CCC)CCCCC(NC(C)=O)C(=O)NCc1ccccc1 (stereo not drawn)
[1]
  GI50: > 100 µM (inactive)
[2]
  GI50: > 100 µM (inactive)
[3]
  GI50: > 100 µM (inactive)
[4]
  GI50: > 100 µM (inactive)
[5]
  GI50: > 100 µM (inactive)
[6]
  GI50: > 100 µM (inactive)
[15]
  GI50: > 100 µM (inactive)
[7]
  GI50: > 100 µM (inactive)
[8]
  GI50: > 100 µM (inactive)
[9]
  GI50: > 100 µM (inactive)
[10]
  GI50: > 100 µM (inactive)
[11]
  GI50: > 100 µM (inactive)
[12]
  GI50: > 100 µM (inactive)
[13]
  GI50: > 100 µM (inactive)
[14]
  GI50: > 100 µM (inactive)

## Cc1ccc(C2SCC(=O)N2NC(=O)c2ccncc2)s1 (stereo not drawn)
[1]
  GI50: > 100 µM (inactive)
[3]
  GI50: > 100 µM (inactive)
[16]
  GI50: > 100 µM (inactive)
[4]
  GI50: > 100 µM (inactive)
[5]
  GI50: > 100 µM (inactive)
[6]
  GI50: > 100 µM (inactive)
[17]
  GI50: > 100 µM (inactive)
[15]
  GI50: > 100 µM (inactive)
[18]
  GI50: > 100 µM (inactive)
[7]
  GI50: > 100 µM (inactive)
[8]
  GI50: > 100 µM (inactive)
[9]
  GI50: > 100 µM (inactive)
[19]
  GI50: > 100 µM (inactive)
[20]
  GI50: > 100 µM (inactive)
[10]
  GI50: > 100 µM (inactive)
[11]
  GI50: > 100 µM (inactive)
[12]
  GI50: > 100 µM (inactive)
[13]
  GI50: > 100 µM (inactive)
[14]
  GI50: > 100 µM (inactive)

## O=c1cc(/N=N\c2ccc(Br)cc2)[nH]c(=S)[nH]1
[1]
  GI50: 15.9 µM (inactive)
[3]
  GI50: 17.8 µM (inactive)
[16]
  GI50: 49.5 µM (inactive)
[4]
  GI50: 55.8 µM (inactive)
[5]
  GI50: 15.4 µM (inactive)
[6]
  GI50: > 100 µM (inactive)
[17]
  GI50: 15.8 µM (inactive)
[15]
  GI50: 10.4 µM (inactive)
[18]
  GI50: 61.2 µM (inactive)
[7]
  GI50: 61 µM (inactive)
[8]
  GI50: 70.1 µM (inactive)
[9]
  GI50: > 100 µM (inactive)
[19]
  GI50: 27.6 µM (inactive)
[20]
  GI50: 61.1 µM (inactive)
[10]
  GI50: 15.7 µM (inactive)
[11]
  GI50: 20.4 µM (inactive)
[12]
  GI50: 39.3 µM (inactive)
[13]
  GI50: 15.9 µM (inactive)
[14]
  GI50: 18.1 µM (inactive)

## COC1CC(NC(=O)C(F)(F)F)C(OC(C)=O)C(C)O1 (stereo not drawn)
[1]
  GI50: > 100 µM (inactive)
[3]
  GI50: > 100 µM (inactive)
[16]
  GI50: > 100 µM (inactive)
[4]
  GI50: > 100 µM (inactive)
[5]
  GI50: > 100 µM (inactive)
[6]
  GI50: > 100 µM (inactive)
[17]
  GI50: > 100 µM (inactive)
[15]
  GI50: > 100 µM (inactive)
[18]
  GI50: > 100 µM (inactive)
[7]
  GI50: > 100 µM (inactive)
[8]
  GI50: > 100 µM (inactive)
[9]
  GI50: > 100 µM (inactive)
[19]
  GI50: > 100 µM (inactive)
[20]
  GI50: > 100 µM (inactive)
[10]
  GI50: > 100 µM (inactive)
[11]
  GI50: > 100 µM (inactive)
[12]
  GI50: > 100 µM (inactive)
[13]
  GI50: > 100 µM (inactive)
[14]
  GI50: > 100 µM (inactive)

## C=CCN(N=O)C(=O)NCCCC(NC(C)=O)C(=O)NCc1ccccc1 (stereo not drawn)
[1]
  GI50: > 100 µM (inactive)
[2]
  GI50: > 100 µM (inactive)
[4]
  GI50: > 100 µM (inactive)
[5]
  GI50: > 100 µM (inactive)
[6]
  GI50: > 100 µM (inactive)
[15]
  GI50: > 100 µM (inactive)
[7]
  GI50: > 100 µM (inactive)
[8]
  GI50: 98.2 µM (inactive)
[9]
  GI50: > 100 µM (inactive)
[10]
  GI50: > 100 µM (inactive)
[11]
  GI50: > 100 µM (inactive)
[12]
  GI50: > 100 µM (inactive)
[13]
  GI50: > 100 µM (inactive)
[14]
  GI50: > 100 µM (inactive)

## CC1=NN(C(=O)c2ccccc2O)C(c2ccccc2Cl)C1C(=O)Nc1ccccc1 (stereo not drawn)
[1]
  GI50: 0.0726 µM (active)
[3]
  GI50: 2.84 µM (inactive)
[16]
  GI50: < 0.0205 µM (active)
[4]
  GI50: < 0.0226 µM (active)
[5]
  GI50: 0.143 µM (active)
[6]
  GI50: 0.262 µM (active)
[17]
  GI50: 0.0387 µM (active)
[15]
  GI50: 0.159 µM (active)
[18]
  GI50: 0.0458 µM (active)
[7]
  GI50: 0.0306 µM (active)
[8]
  GI50: < 0.0298 µM (active)
[9]
  GI50: 10.9 µM (inactive)
[19]
  GI50: < 0.0322 µM (active)
[20]
  GI50: 1.75 µM (inactive)
[10]
  GI50: 0.054 µM (active)
[11]
  GI50: 40.4 µM (inactive)
[12]
  GI50: < 0.01 µM (active)
[13]
  GI50: 0.0238 µM (active)
[14]
  GI50: 0.098 µM (active)

## COC1(OC)C2(Cl)CCC1(Cl)C(OC(C)=O)C2 (stereo not drawn)
[1]
  GI50: > 100 µM (inactive)
[3]
  GI50: > 100 µM (inactive)
[16]
  GI50: > 100 µM (inactive)
[4]
  GI50: > 100 µM (inactive)
[5]
  GI50: > 100 µM (inactive)
[6]
  GI50: > 100 µM (inactive)
[17]
  GI50: > 100 µM (inactive)
[15]
  GI50: > 100 µM (inactive)
[18]
  GI50: > 100 µM (inactive)
[7]
  GI50: > 100 µM (inactive)
[8]
  GI50: > 100 µM (inactive)
[9]
  GI50: > 100 µM (inactive)
[19]
  GI50: > 100 µM (inactive)
[20]
  GI50: > 100 µM (inactive)
[10]
  GI50: > 100 µM (inactive)
[11]
  GI50: > 100 µM (inactive)
[12]
  GI50: > 100 µM (inactive)
[13]
  GI50: > 100 µM (inactive)
[14]
  GI50: > 100 µM (inactive)

From ChEMBL document CHEMBL1201862, “PubChem BioAssay data set” (2004)
